Source: US20090312288A1 (TAKEDA PHARMACEUTICAL COMPANY LIMITED, priority 2008, published 2009)

Molecular target: Aurora B/INCENP (Homo sapiens, UniProt Q96GD4)
Experiment: Determination of inhibition of AIK: Aurora B/INCENP direct fluorescence polarization (IMAP) assay
Assay type: biochemical
Settings: 10 uM ATP, 0.8 nM Aurora B/INCENP; values given as bins; read-out: IC50 of Exemplified Compounds Against AIK B
Experimental: Detection of the reaction product is performed by addition of Progressive IMAP binding reagent (Molecular Devices). Reaction product may be determined quantitatively by FP using an Analyst HT plate reader (Molecular Devices) with an excitation wavelength at 485 nm and emission at 530 nm and using a Fluorescein 505 dichroic mirror.
The assay reaction may be initiated as follows: 2 ul of (3×) 300 nM Fl-Peptide/30 uM ATP was added to each well of the plate, followed by the addition of 2 ul of (3×) inhibitor (2 fold serial dilutions for 11 data points for each inhibitor) containing 15% DMSO. Two microliters of (3×) 2.4 nM AuroraB/INCENP solution may be added to initiate the reaction (final enzyme concentration was 0.8 nM for Aurora B/INCENP). The reaction mixture may then be incubated at room temperature for 45 min, and quenched and developed by addition of 20 ul of 1 to 400 diluted Progressive IMAP binding reagent in 1× proprietary Progressive IMAP binding buffer A. Fluorescence polarization readings of the resulting reaction mixtures may be measured after a 60-minute incubation at room temperature.
IC50 values may be calculated by non-linear curve fitting of the compound concentrations and fluorescent polarization values to the standard IC50 equation.

Sequence of Aurora B/INCENP (Q96GD4 whole entry): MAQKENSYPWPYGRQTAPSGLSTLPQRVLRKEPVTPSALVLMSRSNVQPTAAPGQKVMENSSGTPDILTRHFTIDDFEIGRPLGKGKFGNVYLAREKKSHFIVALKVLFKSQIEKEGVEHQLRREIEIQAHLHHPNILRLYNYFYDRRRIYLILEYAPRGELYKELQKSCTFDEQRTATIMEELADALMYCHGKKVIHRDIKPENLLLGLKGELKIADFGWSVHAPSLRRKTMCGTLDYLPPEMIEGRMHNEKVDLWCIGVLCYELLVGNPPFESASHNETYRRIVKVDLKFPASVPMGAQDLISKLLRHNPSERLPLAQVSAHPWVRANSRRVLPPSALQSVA
Sequence of Aurora B/INCENP (Q9NQS7 whole entry partner): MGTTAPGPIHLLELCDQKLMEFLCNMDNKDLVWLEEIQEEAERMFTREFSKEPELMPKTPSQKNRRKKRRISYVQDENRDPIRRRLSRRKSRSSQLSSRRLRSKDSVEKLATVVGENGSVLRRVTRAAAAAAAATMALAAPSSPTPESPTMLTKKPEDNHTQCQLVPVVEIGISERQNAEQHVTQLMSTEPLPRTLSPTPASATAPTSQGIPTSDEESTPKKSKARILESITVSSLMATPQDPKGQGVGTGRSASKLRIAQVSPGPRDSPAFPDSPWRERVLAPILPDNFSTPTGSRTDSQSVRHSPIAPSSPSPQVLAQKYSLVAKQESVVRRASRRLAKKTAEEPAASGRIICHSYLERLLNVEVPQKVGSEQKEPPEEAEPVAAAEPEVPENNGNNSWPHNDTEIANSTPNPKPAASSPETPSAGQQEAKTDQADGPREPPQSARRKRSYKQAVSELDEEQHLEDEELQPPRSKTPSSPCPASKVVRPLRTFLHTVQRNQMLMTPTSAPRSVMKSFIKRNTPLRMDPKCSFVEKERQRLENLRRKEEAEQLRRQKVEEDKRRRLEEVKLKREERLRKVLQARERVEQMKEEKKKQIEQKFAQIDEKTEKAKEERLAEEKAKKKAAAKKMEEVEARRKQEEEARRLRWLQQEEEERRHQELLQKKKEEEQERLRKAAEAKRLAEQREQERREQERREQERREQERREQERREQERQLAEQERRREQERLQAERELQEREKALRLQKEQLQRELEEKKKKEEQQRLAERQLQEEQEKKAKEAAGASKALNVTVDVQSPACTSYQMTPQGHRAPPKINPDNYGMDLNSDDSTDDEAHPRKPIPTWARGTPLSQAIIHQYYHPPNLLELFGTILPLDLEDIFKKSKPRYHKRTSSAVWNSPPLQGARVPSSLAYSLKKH

Structure (SMILES) | IC50
CCS(=O)(=O)c1cccc(-c2cnc(OCC3CCN(C)CC3)c3[nH]c4ncc(Cl)cc4c23)c1 [Compound 72, 3-Chloro-5-(3-ethanesulfonyl-phenyl)-8-(1-methyl-piperidin-4-ylmethoxy)-9H-dipyrido[2,3-b;4′,3′-d]pyrrole] | < 4 nM
CCS(=O)(=O)c1cccc(-c2cnc(OC[C@@H](C)O)c3[nH]c4ncc(Cl)cc4c23)c1 [Compound 73, (R)-1-[3-Chloro-5-(3-ethanesulfonyl-phenyl)-9H-dipyrido[2,3-b;4′,3′-d]pyrrol-8-yloxy]-propan-2-ol] | < 4 nM
CCS(=O)(=O)c1cccc(-c2cnc(NC)c3[nH]c4ncc(C)cc4c23)c1 [Compound 74, 2-[5-(3-Ethanesulfonyl-phenyl)-3-methyl-9H-dipyrido[2,3-b;4′,3′-d]pyrrol-8-yl]methyl amine] | < 4 nM
CCS(=O)(=O)c1cccc(-c2cnc(SC)c3[nH]c4ncc(C)cc4c23)c1 [Compound 75] | < 4 nM
CCSc1ncc(-c2cccc(S(=O)(=O)CC)c2)c2c1[nH]c1ncc(C)cc12 [Compound 76] | 5.6 to 8.5 nM
CCSc1ncc(-c2cccc(NC(=O)C3CC3)c2)c2c1[nH]c1ncc(C)cc12 [Compound 79] | > 13 nM
CCS(=O)(=O)c1cccc(-c2cc(C(=O)NC3CCN(C)CC3)c(C)c3[nH]c4ncc(C)cc4c23)c1 [Compound 88, 5-(3-(ethylsulfonyl)phenyl)-3,8-dimethyl-N-(1-methylpiperidin-4-yl)-9H-pyrido[2,3-b]indole-7-carboxamide] | 8.6 to 13 nM
CCS(=O)(=O)c1cccc(-c2cc(C(=O)N(C)CCN(C)C)c(C)c3[nH]c4ncc(C)cc4c23)c1 [Compound 91, N-(2-(dimethylamino)ethyl)-N-methyl-5-(3-(ethylsulfonyl)phenyl)-3,8-dimethyl-9H-pyrido[2,3-b]indole-7-carboxamide] | > 13 nM
CCS(=O)(=O)c1cccc(-c2cc(C(=O)N3CCN(C)CC3)c(C)c3[nH]c4ncc(C)cc4c23)c1 [Compound 93] | > 13 nM
CCS(=O)(=O)c1cccc(-c2cc(C(=O)NCCN3CCNCC3)c(C)c3[nH]c4ncc(C)cc4c23)c1 [Compound 94] | > 13 nM
CCS(=O)(=O)c1cccc(-c2cc(C(=O)NCCCN3CCN(C)CC3)c(C)c3[nH]c4ncc(C)cc4c23)c1 [Compound 95, 5-(3-(ethylsulfonyl)phenyl)-3,8-dimethyl-N-(3-(4-methylpiperazin-1-yl)propyl)-9H-pyrido[2,3-b]indole-7-carboxamide] | > 13 nM
CCS(=O)(=O)c1cccc(-c2cc(C(=O)N3CCOCC3)c(C)c3[nH]c4ncc(C)cc4c23)c1 [Compound 96] | 8.6 to 13 nM
CCS(=O)(=O)c1cccc(-c2cc(C(=O)N3CCC3)c(C)c3[nH]c4ncc(C)cc4c23)c1 [Compound 97, azetidin-1-yl(5-(3-(ethylsulfonyl)phenyl)-3,8-dimethyl-9H-pyrido[2,3-b]indol-7-yl)methanone] | > 13 nM
CCS(=O)(=O)c1cccc(-c2cc(C(=O)N3CCSC3)c(C)c3[nH]c4ncc(C)cc4c23)c1 [Compound 98, (5-(3-(ethylsulfonyl)phenyl)-3,8-dimethyl-9H-pyrido[2,3-b]indol-7-yl)(thaiazolidin-3-yl)methanone] | 5.6 to 8.5 nM
CCS(=O)(=O)c1cccc(-c2cc(C(=O)NC3CCN(C(C)C)CC3)c(C)c3[nH]c4ncc(C)cc4c23)c1 [Compound 104, 5-(3-(ethylsulfonyl)phenyl)-N-(1-isopropylpiperidin-4-yl)-3,8-dimethyl-9H-pyrido[2,3-b]indole-7-carboxamide] | 8.6 to 13 nM
CCN1CCC(NC(=O)c2cc(-c3cccc(S(=O)(=O)CC)c3)c3c([nH]c4ncc(C)cc43)c2C)CC1 [Compound 105, N-(1-ethylpiperidin-4-yl)-5-(3-(ethylsulfonyl)phenyl)-3,8-dimethyl-9H-pyrido[2,3-b]indole-7-carboxamide] | > 13 nM
CCS(=O)(=O)c1cccc(-c2cc(C(=O)Nc3nccs3)c(C)c3[nH]c4ncc(C)cc4c23)c1 [Compound 106] | 5.6 to 8.5 nM
CCS(=O)(=O)c1cccc(-c2cc(C(=O)N[C@@H]3CCCNC3)c(C)c3[nH]c4ncc(C)cc4c23)c1 [Compound 108, (R)-5-(3-(ethylsulfonyl)phenyl)-3,8-dimethyl-N-(piperidin-3-yl)-9H-pyrido[2,3-b]indole-7-carboxamide] | > 13 nM
CCS(=O)(=O)c1cccc(-c2cc(C(=O)NCC3CCN(C)CC3)c(C)c3[nH]c4ncc(C)cc4c23)c1 [Compound 114, 5-(3-(ethylsulfonyl)phenyl)-3,8-dimethyl-N-((1-methylpiperidin-4-yl)methyl)-9H-pyrido[2,3-b]indole-7-carboxamide] | 5.6 to 8.5 nM
Cc1cnc2[nH]c3c(C)c(C(=O)NC4CCN(C)CC4)cc(-c4cccc(NC(=O)C5CC5)c4)c3c2c1 [Compound 120, 5-(3-(cyclopropanecarboxamido)phenyl)-3,8-dimethyl-N-(1-methyl-piperidin-4-yl)-9H-pyrido[2,3-b]indole-7-carboxamide] | 5.6 to 8.5 nM
Cc1cnc2[nH]c3c(C)c(C(=O)NCCN(C)C)cc(-c4cccc(C(=O)NC5CC5)c4)c3c2c1 [Compound 122, 5-(3-(cyclopropylcarbamoyl)phenyl)-N-(2-(dimethylamino)ethyl)-3,8-dimethyl-9H-pyrido[2,3-b]indole-7-carboxamide] | > 13 nM
CCS(=O)(=O)c1cccc(-c2cc(C(=O)OC)cc3[nH]c4ncc(C)cc4c23)c1 [Compound 133, 5-(3-Ethanesulfonyl-phenyl)-3-methyl-9H-pyrido[2,3-b]indole-7-carboxylic acid methyl ester] | 8.6 to 13 nM
CCS(=O)(=O)c1cccc(-c2cc(CO)cc3[nH]c4ncc(C)cc4c23)c1 [Compound 134, [5-(3-Ethanesulfonyl-phenyl)-3-methyl-9H-pyrido[2,3-b]indol-7-yl]-methanol] | < 4 nM

Next, values leading:

IC50 | Structure (SMILES)
8.6 to 13 nM | CCS(=O)(=O)c1cccc(-c2cc(C(=O)NCCNC)c(C)c3[nH]c4ncc(C)cc4c23)c1 [Compound 89, N-(2-(methylamino)ethyl)-5-(3-(ethylsulfonyl)phenyl)-3,8-dimethyl-9H-pyrido[2,3-b]indole-7-carboxamide]
5.6 to 8.5 nM | CCS(=O)(=O)c1cccc(-c2cc(C(=O)NCCOC)c(C)c3[nH]c4ncc(C)cc4c23)c1 [Compound 90, N-(2-(methoxy)ethyl)-5-(3-(ethylsulfonyl)phenyl)-3,8-dimethyl-9H-pyrido[2,3-b]indole-7-carboxamide]
5.6 to 8.5 nM | CCS(=O)(=O)c1cccc(-c2cc(C(=O)N(C)C)c(C)c3[nH]c4ncc(C)cc4c23)c1 [Compound 92, N,N-dimethyl-5-(3-(ethylsulfonyl)phenyl)-3,8-dimethyl-9H-pyrido[2,3-b]indole-7-methylcarboxamide]
8.6 to 13 nM | CCS(=O)(=O)c1cccc(-c2cc(C(=O)NC[C@@H](C)O)c(C)c3[nH]c4ncc(C)cc4c23)c1 [Compound 99, (R)-5-(3-(ethylsulfonyl)phenyl)-N-(2-hydroxypropyl)-3,8-dimethyl-9H-pyrido[2,3-b]indole-7-carboxamide]
4 to 5.5 nM | CCS(=O)(=O)c1cccc(-c2cc(C(=O)NC[C@H](C)O)c(C)c3[nH]c4ncc(C)cc4c23)c1 [Compound 100, (S)-5-(3-(ethylsulfonyl)phenyl)-N-(2-hydroxypropyl)-3,8-dimethyl-9H-pyrido[2,3-b]indole-7-carboxamide]
4 to 5.5 nM | CCS(=O)(=O)c1cccc(-c2cc(C(=O)NCCO)c(C)c3[nH]c4ncc(C)cc4c23)c1 [Compound 101, 5-(3-(ethylsulfonyl)phenyl)-N-(2-hydroxyethyl)-3,8-dimethyl-9H-pyrido[2,3-b]indole-7-carboxamide]
4 to 5.5 nM | CCS(=O)(=O)c1cccc(-c2cc(C(=O)NCC(O)CO)c(C)c3[nH]c4ncc(C)cc4c23)c1 (stereo not drawn) [Compound 102, N-(2,3-dihydroxypropyl)-5-(3-(ethylsulfonyl)phenyl)-3,8-dimethyl-9H-pyrido[2,3-b]indole-7-carboxamide]
8.6 to 13 nM | CCS(=O)(=O)c1cccc(-c2cc(C(=O)NCC(C)(C)O)c(C)c3[nH]c4ncc(C)cc4c23)c1 [Compound 103, 5-(3-(ethylsulfonyl)phenyl)-N-(2-hydroxy-2-methylpropyl)-3,8-dimethyl-9H-pyrido[2,3-b]indole-7-carboxamide]
8.6 to 13 nM | CCS(=O)(=O)c1cccc(-c2cc(C(=O)NCCOCC(F)(F)F)c(C)c3[nH]c4ncc(C)cc4c23)c1 [Compound 107]
5.6 to 8.5 nM | CCS(=O)(=O)c1cccc(-c2cc(C(=O)NCCOCCO)c(C)c3[nH]c4ncc(C)cc4c23)c1 [Compound 111]
8.6 to 13 nM | CCS(=O)(=O)c1cccc(-c2cc(C(=O)NCCN(C)C)c(C)c3[nH]c4ncc(C)cc4c23)c1 [Compound 113]
8.6 to 13 nM | CCS(=O)(=O)c1cccc(-c2cc(C(=O)NCCCN(C)C)c(C)c3[nH]c4ncc(C)cc4c23)c1 [Compound 115, N-(3-(dimethylamino)propyl)-5-(3-(ethylsulfonyl)phenyl)-3,8-dimethyl-9H-pyrido[2,3-b]indole-7-carboxamide]
8.6 to 13 nM | CCS(=O)(=O)c1cccc(-c2cc(C(=O)NCCN3CCCC3)c(C)c3[nH]c4ncc(C)cc4c23)c1 [Compound 116, 5-(3-(ethylsulfonyl)phenyl)-3,8-dimethyl-N-(2-(pyrrolidin-1-yl)ethyl)-9H-pyrido[2,3-b]indole-7-carboxamide]
